#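 All cell lines were grown in 96-well plates and treated with compound for 48 hours. Here, GI50 denotes the concentration required for 50% inhibition of growth.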 The source made the active and inactive calls. Rule as the data show it: active = GI50 up to about 1.1 µM and inactive = higher.
# What was measured:
# Assay in all cases: DTP human tumour cell line panel, 48 h
# CAKI-1 = system: CAKI-1
# DU-145 = system: DU-145
# HCT-15 = system: HCT-15
# HT-29 = system: HT-29
# MDA-MB-435 = system: MDA-MB-435
# Malme-3M = system: Malme-3M
# NCI-H226 = system: NCI-H226
# NCI-H460 = system: NCI-H460
# OVCAR-3 = system: OVCAR-3
# OVCAR-4 = system: OVCAR-4
# OVCAR-8 = system: OVCAR-8
# PC-3 = system: PC-3
# RPMI-8226 = system: RPMI-8226
# SF-539 = system: SF-539
# SK-OV-3 = system: SK-OV-3
# SW-620 = system: SW-620
# T47D = system: T47D
# TK-10 = system: TK-10
# U-251 = system: U-251
# UO-31 = system: UO-31
Compound,GI50 (CAKI-1),GI50 (DU-145),GI50 (HCT-15) [µM],GI50 (HT-29),GI50 (MDA-MB-435),GI50 (Malme-3M),GI50 (NCI-H226),GI50 (NCI-H460),GI50 (OVCAR-3),GI50 (OVCAR-4),GI50 (OVCAR-8),GI50 (PC-3),GI50 (RPMI-8226),GI50 (SF-539),GI50 (SK-OV-3),GI50 (SW-620),GI50 (T47D),GI50 (TK-10),GI50 (U-251),GI50 (UO-31)
C=CCN1CN(C2CCCCC2)CSC1=S,4.72 µM (inactive),2.23 µM (inactive),2.54,3.48 µM (inactive),0.944 µM (active),3.16 µM (inactive),14.6 µM (inactive),4.12 µM (inactive),7.01 µM (inactive),12.8 µM (inactive),4.06 µM (inactive),5.02 µM (inactive),1.04 µM (active),1.36 µM (inactive),14.4 µM (inactive),0.733 µM (active),0.883 µM (active),3.69 µM (inactive),3.59 µM (inactive),8 µM (inactive)
O=C(Nc1sccc1S(=O)(=O)c1ccccc1)c1cccnc1,> 32.7 µM (inactive),39.2 µM (inactive),5.18,5.68 µM (inactive),1.83 µM (inactive),8.59 µM (inactive),13.7 µM (inactive),8.34 µM (inactive),11.6 µM (inactive),> 100 µM (inactive),22.7 µM (inactive),37.6 µM (inactive),7.52 µM (inactive),5.94 µM (inactive),11.7 µM (inactive),5.92 µM (inactive),70.6 µM (inactive),> 83 µM (inactive),2.97 µM (inactive),> 58.1 µM (inactive)
CCOC(=O)c1c(CN2CCOCC2)n(Cc2ccccc2)c2c1cc(O)c1nc(C)c(C)nc12,22.1 µM (inactive),78.2 µM (inactive),57,> 100 µM (inactive),> 100 µM (inactive),45.8 µM (inactive),45.5 µM (inactive),42 µM (inactive),52.7 µM (inactive),47.8 µM (inactive),15.5 µM (inactive),17.5 µM (inactive),30.3 µM (inactive),30.8 µM (inactive),33.3 µM (inactive),> 100 µM (inactive),20 µM (inactive),30.3 µM (inactive),27.4 µM (inactive),36.1 µM (inactive)
CCOC(=O)C(SCCO)C(C(=O)OCC)n1ccc(N)nc1=O (stereo not given),> 100 µM (inactive),> 100 µM (inactive),> 100,> 100 µM (inactive),> 100 µM (inactive),> 100 µM (inactive),> 100 µM (inactive),> 100 µM (inactive),> 100 µM (inactive),> 100 µM (inactive),> 100 µM (inactive),> 100 µM (inactive),> 100 µM (inactive),> 100 µM (inactive),> 100 µM (inactive),> 100 µM (inactive),> 100 µM (inactive),> 100 µM (inactive),> 100 µM (inactive),> 100 µM (inactive)
C[C@@]12C[C@@H](c3ccccc3O1)N1CCCCSC1=N2,> 100 µM (inactive),> 100 µM (inactive),> 100,> 100 µM (inactive),> 100 µM (inactive),> 100 µM (inactive),> 100 µM (inactive),> 100 µM (inactive),> 100 µM (inactive),> 100 µM (inactive),> 100 µM (inactive),> 100 µM (inactive),> 100 µM (inactive),> 100 µM (inactive),> 100 µM (inactive),> 100 µM (inactive),> 100 µM (inactive),> 100 µM (inactive),> 100 µM (inactive),> 100 µM (inactive)
CCCCc1ccc(-n2sc3ncc([N+](=O)[O-])cc3c2=O)cc1,13.4 µM (inactive),23.3 µM (inactive),15.1,13.8 µM (inactive),14.4 µM (inactive),7.8 µM (inactive),12.8 µM (inactive),12.7 µM (inactive),5.05 µM (inactive),6.58 µM (inactive),22.9 µM (inactive),5.55 µM (inactive),9.12 µM (inactive),15.3 µM (inactive),> 100 µM (inactive),16.8 µM (inactive),10.1 µM (inactive),21.1 µM (inactive),12.6 µM (inactive),12.5 µM (inactive)
Nc1nc2c(ncn2Cc2ccc(CO)cc2)c(=O)[nH]1,> 100 µM (inactive),> 100 µM (inactive),> 100,> 100 µM (inactive),> 100 µM (inactive),> 100 µM (inactive),> 100 µM (inactive),> 100 µM (inactive),> 100 µM (inactive),> 100 µM (inactive),> 100 µM (inactive),> 100 µM (inactive),> 100 µM (inactive),> 100 µM (inactive),> 100 µM (inactive),> 100 µM (inactive),> 100 µM (inactive),> 100 µM (inactive),> 100 µM (inactive),> 100 µM (inactive)
COc1ccc2c(C)c(Oc3c(Cl)c(Cl)c(O)c(C#N)c3C#N)oc2c1,> 100 µM (inactive),> 100 µM (inactive),> 100,> 100 µM (inactive),> 100 µM (inactive),> 100 µM (inactive),> 100 µM (inactive),> 100 µM (inactive),> 100 µM (inactive),> 100 µM (inactive),> 100 µM (inactive),> 100 µM (inactive),> 100 µM (inactive),> 100 µM (inactive),> 100 µM (inactive),> 100 µM (inactive),> 100 µM (inactive),> 100 µM (inactive),> 100 µM (inactive),> 100 µM (inactive)
CCOC(=O)c1c(C)n(-c2ccc(C)cc2)c2c1cc(O)c1[nH]c3c(c12)CCCC3,27.9 µM (inactive),12.8 µM (inactive),24.3,14.9 µM (inactive),20.1 µM (inactive),17.7 µM (inactive),23.8 µM (inactive),24.8 µM (inactive),12.9 µM (inactive),13.7 µM (inactive),22.4 µM (inactive),12.9 µM (inactive),4.07 µM (inactive),15.7 µM (inactive),87.3 µM (inactive),17.6 µM (inactive),20.9 µM (inactive),27.5 µM (inactive),14.8 µM (inactive),13.9 µM (inactive)
Oc1cccc2ccc(Br)nc12,> 100 µM (inactive),> 100 µM (inactive),> 100,> 100 µM (inactive),> 100 µM (inactive),> 100 µM (inactive),> 100 µM (inactive),> 100 µM (inactive),> 100 µM (inactive),> 100 µM (inactive),> 100 µM (inactive),86.5 µM (inactive),97.9 µM (inactive),> 100 µM (inactive),> 100 µM (inactive),> 100 µM (inactive),51.6 µM (inactive),> 100 µM (inactive),> 100 µM (inactive),> 100 µM (inactive)
CCCCCCCCCCCC(=O)N(CCCCCCCCCCC(=O)O)CC(O)C(O)C(OC1OC(CO)C(O)C(O)C1O)C(O)CO (stereo not given),> 100 µM (inactive),> 100 µM (inactive),> 100,> 100 µM (inactive),> 100 µM (inactive),> 100 µM (inactive),> 100 µM (inactive),> 100 µM (inactive),> 100 µM (inactive),> 100 µM (inactive),> 100 µM (inactive),> 100 µM (inactive),50.7 µM (inactive),> 100 µM (inactive),> 100 µM (inactive),> 100 µM (inactive),> 100 µM (inactive),> 100 µM (inactive),> 100 µM (inactive),> 100 µM (inactive)
O/N=N/c1ccccn1.OCC1OC2OC3C(CO)OC(OC4C(CO)OC(OC5C(CO)OC(OC6C(CO)OC(OC7C(CO)OC(OC1C(O)C2O)C(O)C7O)C(O)C6O)C(O)C5O)C(O)C4O)C(O)C3O (stereo not given),> 100 µM (inactive),> 100 µM (inactive),> 100,> 100 µM (inactive),19.2 µM (inactive),61 µM (inactive),> 100 µM (inactive),68.7 µM (inactive),40.8 µM (inactive),> 100 µM (inactive),> 100 µM (inactive),65.3 µM (inactive),27.3 µM (inactive),52.8 µM (inactive),> 100 µM (inactive),42.1 µM (inactive),> 100 µM (inactive),> 100 µM (inactive),> 100 µM (inactive),> 100 µM (inactive)
CC(C)[C@@H]1ON1C(C)c1ccccc1 (stereo not given in full),17.1 µM (inactive),> 100 µM (inactive),79.6,> 100 µM (inactive),> 100 µM (inactive),> 100 µM (inactive),> 100 µM (inactive),> 100 µM (inactive),> 100 µM (inactive),> 100 µM (inactive),> 100 µM (inactive),> 100 µM (inactive),> 100 µM (inactive),> 100 µM (inactive),> 100 µM (inactive),> 100 µM (inactive),> 100 µM (inactive),> 100 µM (inactive),> 100 µM (inactive),> 100 µM (inactive)
